Where two headings read alike, the source gives them in different places. Marks after values point to notes of the source that are not given here.
Experiments:
MB-231 (HBC) = test: MTS cell assay, MB-231; format: cell-based, Human; details: Homo sapiens, 72 hours
Protocol: Charles River Labs athymic nude mice bearing MDA-MB-231 breast carcinoma cell line subcutaneous xenografts (5×10^6 cells in matrigel) were sacrificed to make a tumor isolate. Using sterile instruments and working aseptically, the tumors were removed from the euthanized animal. The tumor was placed in a 50 mL sterile conical tube and 5 mL of trypsin was added. The tumor was cut into small pieces and incubated at 37° C. for 30 minutes. After incubation, a cell strainer was placed on a second, sterile, 50 mL conical tube and the contents of the first tube were placed in the cell strainer. The tissue was forced through the filter using the flat end of a syringe plunger. The cell strainer was washed with 5 mLs of media containing FBS. The cells were spun down and the supernatant was discarded. The cells were resuspended in 20 mLs of complete media containing P/S and placed in a 75 cm flask.
(§1) Human carcinoma cells (2,000 cells/well) were incubated with the desired concentration of the test molecule (0-200 μM) for 72 hours. The cells were then incubated with MTS solution (Promega) for 1-2 hours, and the compounds effects on cell proliferation was determined by measuring the absorbance at 490 nm. Cell growth was expressed as a percent of the appropriate control (placebo). […] All data reported was the mean±SE of three independent experiments.

[1] = Tumor and plasma levels, MDA-MB-231 tumor efficacy PK group; details: athymic nude, mouse, in vivo
Protocol: (§2) A portion of the tumor bearing mice were dosed as a satellite PK group. Each group was dosed as described for the tumor efficacy group, however the PK group was euthanized and tissue samples collected at 1, 3 and 6 hours post dosing on day 2. The tissues collected included blood, lung, liver and tumor. Samples were analyzed for bendamustine HCl and the corresponding ester analogue as described in the LC-MS protocol section.
(§3) Plasma and other tissues were prepared for high performance liquid chromatography (HPLC)/mass spectrometric analysis according to a standard protocol following protein precipitation with acetonitrile containing an internal standard. The samples were then analyzed for both bendamustine HCl and bendamustine esters of the invention and alprenolol (internal standard) via HPLC coupled with tandem mass spectrometry. Tissue samples were homogenized in sodium phosphate buffer and the value obtained from the assay was multiplied by 3 to correct for dilution during processing.

[2] = test system: RPMI 8226 (Human Plasmacytoma, Myeloma B Cells)
Protocol: Cells (originated from ATCC) were cultured on RPMI medium. Cell suspension was centrifuged and resuspended in 50% Matrigel/HBSS to a final concentration of 7×10^7 cells/ml. The suspension was implanted s.c. in the right flank of the anesthetized mouse at a volume of 100 μl.
Seven ml saline were added to the original vial containing 3.5 mg powder resulting in 0.5 mg/ml. Three ml of this solution were added to 27 ml saline to receive 0.05 mg/ml concentration.
bendamustine preparation: 13.5 mg was dissolved in 3.6 ml of 1:1 mixture of 0.9% saline/5% mannitol just before the treatment. 1.05 ml of this solution was added to 0.95 ml diluent for 2 mg/ml solution.
1.05 ml of this solution was added to 0.95 ml diluent for 2 mg/ml solution.
On day 21, mice were sorted by the optimal average tumor volume (˜150 mm^3) and were allocated into eight groups of 9 mice each.
[formula] The analysis of weight gain and tumor volume progression was made using one-way ANOVA followed by Tukey post-hoc comparisons. Results

[3] = test system: H460 tumor cells (large cell lung cancer); test: Nude mouse H460 tumor efficacy study; format: in vivo, nu/nu mouse; details: tail vein
Protocol: 2×10^6 cells/100 ul in the mix of medium and Matrigel (1:1 ratio) solution was injected into right back flank of each nu/nu mouse. The implanted mice were monitored and measured with electric calipers. The study started when the tumors reached ˜150 mm^3 in size. The mice were measured and randomized into 9 groups with 10 mice in each group per the below table: […]

[4] = reported; cited from earlier work
MDA-MB-231 xenografts = test: Nude mouse MDA-MB-231 tumor efficacy study; format: in vivo, athymic nude mice; details: tail vein day 1 and 2
Protocol: Charles River Labs athymic nude mice were subcutaneous injected with 5×10^6 human tumor cells in matrigel. The tumor volume was monitored until an average tumor size of ˜150 mm^3 was obtained in the mouse population The mice were then randomized in to one of the nine treatment groups (summarized in table below) with a population of 10 mice per group (n=10). Each of the formulations were dosed at 100 μL fixed volume via tail vein injection on day 1 and day 2 of the study. Mice were weighed and the tumor volume measured every 3-4 days for 3 weeks of the study duration.

H-460 (NSCLC) = test: MTS cell assay, H-460; format: cell-based, Human; details: Homo sapiens, NCI-H460, 72 hours
Protocol: as §1

[5] = Tumor and plasma levels, H460 tumor efficacy PK group; details: nu/nu, mouse, in vivo
Protocol: The formulations were administrated as 100 μL dose volume through tail vein injection within 30 minutes after compounds were formulated. All the mice were weighed and tumors measured twice weekly. At the last day of the study, plasma, tumor, lung, liver, spleen, left kidney, brain and legs were collected and quickly frozen for further analysis two hours post-dosing.
as §2, §3

[6] = CD-1 mice plasma pharmacokinetics, bendamustine C14 ester albumin nanoparticle i.v.; format: in vivo; details: mouse, iv; for Vd: Mean n = 3; for AUC(0-t): Mean n = 3, read-out: AUC0-6 of C14 Ester in plasma; for AUC(0-inf): Mean n = 3, read-out: AUC0-∞ of C14 Ester in plasma; for clearance: Mean n = 3, read-out: CL of C14 Ester; for half-life: Mean n = 3, read-out: t1/2 of C14 Ester in plasma (converted)
Protocol: Another embodiment of the invention, bendamustine C14 ester was formulated into a nanoparticle intraveneous formulation according to the methods described above and administered to CD-1 mice. The amount of bendamustine (BM1) and bendamustine C14 ester was determined in the mice plasma.

[7] = 20 mg/kg iv on days 1 and 2, day 46
[8] = 37.5 mg/kg iv on days 1 and 2, day 46
[9] = Solution (TREANDA), 37.5 mg/kg Free Base Eq.
[10] = 80 mg/kg, Ester level in plasma at 1 hour, HSA nanoparticle
[11] = 80 mg/kg, Ester level in plasma at 1 hour, Solution
[12] = 80 mg/kg, Ester level in tumor at 1 hour, HSA nanoparticle
[13] = 80 mg/kg, Ester level in tumor at 1 hour, Solution
[14] = HSA nanoparticle, 80 mg/kg Free Base Eq.
[15] = Solution, 80 mg/kg Free Base Eq.

For `Cn1c(CCCC(=O)O)nc2cc(N(CCCl)CCCl)ccc21` [Bendamustine, 4-[5-[bis(2-chloroethyl)amino]-1-methylbenzimidazol-2-yl]butanoic acid], which IC50 (MB-231 (HBC)) is on record?
The IC50 was 13 to 16 µM.

And the concentration at 1 h ([1]; 37.5 mg/kg, BM1 level in plasma at 1 hour, Solution)?
Its concentration at 1 h is 906 ng/mL.

And the concentration at 1 h ([1]; 37.5 mg/kg, BM1 level in tumor at 1 hour, Solution)?
Its concentration at 1 h is 558 ng/mL.

What about the “Max BW (mean) reduction” value ([2]; 20 mg/kg iv on days 1 and 2) of the same molecule?
The value was −2.7%.

And the “No. of TRD” value ([2]; 20 mg/kg iv on days 1 and 2)?
The value was 0.

What about the “No. og nTRD” value ([2]; 20 mg/kg iv on days 1 and 2) of the same molecule?
Its value is 0.

And the “% TGI” value [2, 7]?
The value was 66*** %.

And the “No. of CR” value [2, 7]?
The value was 0.

What about the “No. of PR” value [2, 7] of the same molecule?
Its value is 0.

What about the “mean tumor volume, (mean ± se)” value [2, 7] of the same molecule?
The value was 205 ± 44.

And the “Max BW (mean) reduction” value ([2]; 37.5 mg/kg iv on days 1 and 2)?
Its value is −6.2%.

And the “No. of TRD” value ([2]; 37.5 mg/kg iv on days 1 and 2)?
Its value is 0.

What about the “No. og nTRD” value ([2]; 37.5 mg/kg iv on days 1 and 2) of the same molecule?
The value was 0.

And the “% TGI” value [2, 8]?
The value was 81%.

What about the “No. of CR” value [2, 8] of the same molecule?
Its value is 0.

What about the “No. of PR” value [2, 8] of the same molecule?
The value was 0.

And the “mean tumor volume, (mean ± se)” value [2, 8]?
Its value is 113 ± 23.

And the “% Morbidity” value [3, 9]?
Its value is 0/0%.

What about the “% Mortality” value [3, 9] of the same molecule?
Its value is 0/0%.

What about the “% Tumor Inh.” value [3, 9] of the same molecule?
Its value is 41.5%.

What about the half-life in vivo [4] of the same molecule?
Its half-life in vivo is 6 to 10 min.

And the “% Morbidity” value (MDA-MB-231 xenografts; Solution, 37.5 mg/kg)?
Its value is 10%.

What about the “% Mortality” value (MDA-MB-231 xenografts; Solution, 37.5 mg/kg) of the same molecule?
Its value is 0%.

And the “% Tumor Inh.” value (MDA-MB-231 xenografts; Solution, 37.5 mg/kg)?
Its value is 77%.

What about the IC50 (H-460 (NSCLC)) of the same molecule?
The IC50 was 4 to 26 µM.

And the concentration at 1 h ([5]; 37.5 mg/kg, BM1 level in plasma at 1 hour, Solution (TREANDA))?
Its concentration at 1 h is 1550 ng/mL.

What about the concentration at 1 h ([5]; 37.5 mg/kg, BM1 level in tumor at 1 hour, Solution (TREANDA)) of the same molecule?
The concentration at 1 h was 1470 ng/mL.

With `CCCCCCCCCCCCCCOC(=O)CCCc1nc2cc(N(CCCl)CCCl)ccc2n1C` [Bendamustine C14 Ester, 4-{5-[Bis-(chloroethyl)-amino]-1-methyl-1H-benzimidazol-2-yl}butyric acid tetradecyl ester] as the molecule, how does the IC50 (MB-231 (HBC)) read?
Its IC50 is > 200 µM.

What about the concentration at 1 h [1, 10] of the same molecule?
Its concentration at 1 h is 5730 ng/mL.

What about the concentration at 1 h [1, 11] of the same molecule?
The concentration at 1 h was 14 ng/mL.

What about the concentration at 1 h [1, 12] of the same molecule?
The concentration at 1 h was 10400 ng/mL.

What about the concentration at 1 h [1, 13] of the same molecule?
The concentration at 1 h was 396 ng/mL.

And the Vd ([6]; 30 mg/kg, 30 mg-eq/kg)?
The Vd was 3.2 L/kg.

What about the AUC(0-t) ([6]; 30 mg/kg, 30 mg-eq/kg) of the same molecule?
The AUC(0-t) was 31700 ng·h/mL.

What about the AUC(0-inf) ([6]; 30 mg/kg, 30 mg-eq/kg) of the same molecule?
Its AUC(0-inf) is 31700 ng·h/mL.

And the clearance ([6]; 30 mg/kg, 30 mg-eq/kg)?
The clearance was 24 mL/min/kg.

And the half-life ([6]; 30 mg/kg, 30 mg-eq/kg)?
Its half-life is 91.2 min.

What about the Vd ([6]; 55 mg/kg, 55 mg-eq/kg) of the same molecule?
The Vd was 2.5 L/kg.

What about the AUC(0-t) ([6]; 55 mg/kg, 55 mg-eq/kg) of the same molecule?
The AUC(0-t) was 48900 ng·h/mL.

What about the AUC(0-inf) ([6]; 55 mg/kg, 55 mg-eq/kg) of the same molecule?
The AUC(0-inf) was 49000 ng·h/mL.

And the clearance ([6]; 55 mg/kg, 55 mg-eq/kg)?
The clearance was 29 mL/min/kg.

And the half-life ([6]; 55 mg/kg, 55 mg-eq/kg)?
The half-life was 58.8 min.

And the Vd ([6]; 80 mg/kg, 80 mg-eq/kg)?
Its Vd is 5.2 L/kg.

What about the AUC(0-t) ([6]; 80 mg/kg, 80 mg-eq/kg) of the same molecule?
Its AUC(0-t) is 46300 ng·h/mL.

What about the AUC(0-inf) ([6]; 80 mg/kg, 80 mg-eq/kg) of the same molecule?
Its AUC(0-inf) is 46500 ng·h/mL.

What about the clearance ([6]; 80 mg/kg, 80 mg-eq/kg) of the same molecule?
The clearance was 56 mL/min/kg.

And the half-life ([6]; 80 mg/kg, 80 mg-eq/kg)?
Its half-life is 65.4 min.

And the “% Morbidity” value [3, 14]?
Its value is 10%.

And the “% Mortality” value [3, 14]?
The value was 0%.

And the “% Tumor Inh.” value [3, 14]?
The value was 40%.

What about the “% Morbidity” value [3, 15] of the same molecule?
The value was 100%.

And the “% Mortality” value [3, 15]?
The value was 40%.

And the “% Tumor Inh.” value [3, 15]?
Its value is 81%.

And the “% Morbidity” value (MDA-MB-231 xenografts; HSA nanoparticle, 80 mg/kg)?
Its value is 60%.

What about the “% Mortality” value (MDA-MB-231 xenografts; HSA nanoparticle, 80 mg/kg) of the same molecule?
The value was 0%.

And the “% Tumor Inh.” value (MDA-MB-231 xenografts; HSA nanoparticle, 80 mg/kg)?
The value was 86.5%.

What about the “% Morbidity” value (MDA-MB-231 xenografts; Solution, 80 mg/kg) of the same molecule?
Its value is 40%.

And the “% Mortality” value (MDA-MB-231 xenografts; Solution, 80 mg/kg)?
The value was 0%.

What about the “% Tumor Inh.” value (MDA-MB-231 xenografts; Solution, 80 mg/kg) of the same molecule?
The value was 90%.

What about the IC50 (H-460 (NSCLC)) of the same molecule?
The IC50 was 130 µM.

And the concentration at 1 h [5, 10]?
The concentration at 1 h was 3650 ng/mL.

And the concentration at 1 h [5, 11]?
Its concentration at 1 h is 32200 ng/mL.

And the concentration at 1 h [5, 12]?
Its concentration at 1 h is 4570 ng/mL.

What about the concentration at 1 h [5, 13] of the same molecule?
The concentration at 1 h was 8570 ng/mL.

What does the source list for `COC(=O)CCCc1nc2cc(N(CCCl)CCCl)ccc2n1C` [—CH3, 4-{5-[Bis-(2-chloro-ethyl)-amino]-1-methyl-1H-benzoimidazol-2-yl}-butyric acid methyl ester]?
melting point: 60 to 63 °C (dec.); IC50 (MB-231 (HBC)): 66 µM; IC50 (H-460 (NSCLC)): 1.2 µM
